Measured values from patent publication US10098883B2, “(Aza)pyridopyrazolopyrimidinones and indazolopyrimidinones and their use” (BAYER PHARMA AKTIENGESELLSCHAFT, priority 2013, dated 2018).
Where a name gives a salt, the structure may show the parent alone.

The compounds below were run on clot lysis (fibrinolysis) in human citrated plasma, tPA-induced (assay: Plasma-based clot lysis assay (5%)). Conditions: diluted human citrated plasma (platelet-poor, 5%), fibrinogen 3 μM, CaCl2 10 mM, tPA 0.2 nM, 37° C., OD 405 nm.
Assay type: biochemical
Experimental: B-2. Plasma-based Clot Lysis Assay (5%)
The clot-lysis test system configures the kinetics of clot formation and degradation in vitro and allows quantifying modulation of the process by selected test compounds.
The test compounds were dissolved in 1% acetic acid and further complemented with an equal volume of DMSO. The resulting stock solutions were serially diluted in 0.5% acetic acid/50% DMSO. 1 μL aliquots of these solutions were placed into 384 well microplates (Greiner, black, transparent bottom), followed by 30 μL of diluted human citrated plasma (platelet-poor, final concentration: 5%; supplemented with fibrinogen, final concentration: 3 μM; dilution buffer: 20 mM HEPES, 150 mM NaCl, 0.01% Brij (pH 7)). The reactions were started by addition of […] of CaCl2 (final concentration: 10 mM), and tPA (tissue plasminogen activator, final concentration: 0.2 nM) in dilution buffer, followed by an additional volume of 20 μL dilution buffer for improved mixing. The reactions were incubated at 37° C. Clot formation and degradation was monitored spectrophotometrically by kinetic optical density measurements at 405 nm. IC50 values were determined by comparing the resulting time courses with the time course of a blank control reaction.

IC50 [nM] | Structure (SMILES)
15 | COc1ccc(-c2cccc3nn4c(C5CCNCC5)cc(=O)[nH]c4c23)cc1 [Example 54, 10-(4-Methoxyphenyl)-4-(piperidin-4-yl)pyrimido[1,2-b]indazol-2(1H)-one hydrochloride]
14 | O=c1cc(C2CCNCC2)n2nc3cccc(-c4ccc(C(F)(F)F)cc4)c3c2[nH]1 [Example 55, 4-(Piperidin-4-yl)-10-[4-(trifluoromethyl)phenyl]pyrimido[1,2-b]indazol-2(1H)-one hydrochloride]
14 | O=c1cc(C2CCNCC2)n2nc3cccc(-c4ccccc4)c3c2[nH]1 [Example 56, 10-Phenyl-4-(piperidin-4-yl)pyrimido[1,2-b]indazol-2(1H)-one hydrochloride]
15 | O=c1cc(C2CCNCC2)n2nc3cccc(-c4cccnc4)c3c2[nH]1 [Example 58, 4-(Piperidin-4-yl)-10-(pyridin-3-yl)pyrimido[1,2-b]indazol-2(1H)-one hydrochloride]
16 | O=c1cc(C2CCNCC2)n2nc3cccc(-c4ccncc4)c3c2[nH]1 [Example 59, 4-(Piperidin-4-yl)-10-(pyridin-4-yl)pyrimido[1,2-b]indazol-2(1H)-one hydrochloride]
19 | O=c1cc(C2CCNCC2)n2nc3cccc(-c4ccccc4Cl)c3c2[nH]1 [Example 64, 10-(2-Chlorophenyl)-4-(piperidin-4-yl)pyrimido[1,2-b]indazol-2(1H)-one hydrochloride]
25 | COc1ccccc1-c1cccc2nn3c(C4CCNCC4)cc(=O)[nH]c3c12 [Example 65, 10-(2-Methoxyphenyl)-4-(piperidin-4-yl)pyrimido[1,2-b]indazol-2(1H)-one hydrochloride]
13 | O=c1cc(C2CCNCC2)n2nc3cccc(-c4ccccc4C(F)(F)F)c3c2[nH]1 [Example 67, 4-(Piperidin-4-yl)-10-[2-(trifluoromethyl)phenyl]pyrimido[1,2-b]indazol-2(1H)-one hydrochloride]
35 | O=c1cc(C2CCNCC2)n2nc3ccc(F)c(Br)c3c2[nH]1 [Example 70, 10-Bromo-9-fluoro-4-(piperidin-4-yl)pyrimido[1,2-b]indazol-2(1H)-one hydrochloride]
15 | Cc1ccc2nn3c(C4CCNCC4)cc(=O)[nH]c3c2c1Br [Example 74, 10-Bromo-9-methyl-4-(piperidin-4-yl)pyrimido[1,2-b]indazol-2(1H)-one hydrochloride]
11 | O=c1cc(C2CCNCC2)n2nc3ccc(F)c(-c4ccccc4)c3c2[nH]1 [Example 77, 9-Fluoro-10-phenyl-4-(piperidin-4-yl)pyrimido[1,2-b]indazol-2(1H)-one hydrochloride]
15 | O=c1cc(C2CCNCC2)n2nc3cccc(-c4c(F)cccc4F)c3c2[nH]1 [Example 78, 10-(2,6-Difluorophenyl)-4-(piperidin-4-yl)pyrimido[1,2-b]indazol-2(1H)-one hydrochloride]
18 | O=c1cc(C2CCNCC2)n2nc3cccc(-c4ccccc4OC(F)(F)F)c3c2[nH]1 [Example 80, 4-(Piperidin-4-yl)-10-[2-(trifluoromethoxy)phenyl]pyrimido[1,2-b]indazol-2(1H)-on hydrochloride]
20 | O=c1cc(C2CCNCC2)n2nc3cccc(-c4ccccn4)c3c2[nH]1 [Example 82, 4-(Piperidin-4-yl)-10-(pyridin-2-yl)pyrimido[1,2-b]indazol-2(1H)-one hydrochloride]
23 | O=c1cc(C2CCNCC2)n2nc3cccc(-c4ccsc4)c3c2[nH]1 [Example 84, 4-(Piperidin-4-yl)-10-(3-thienyl)pyrimido[1,2-b]indazol-2(1H)-one hydrochloride]
18 | Cc1ccccc1-c1cccc2nn3c(C4CCNCC4)cc(=O)[nH]c3c12 [Example 85, 10-(2-Methylphenyl)-4-(piperidin-4-yl)pyrimido[1,2-b]indazol-2(1H)-one hydrochloride]
26 | O=c1cc(C2CCNCC2)n2nc3cccc(-c4cccs4)c3c2[nH]1 [Example 88, 4-(Piperidin-4-yl)-10-(2-thienyl)pyrimido[1,2-b]indazol-2(1H)-one hydrochloride]

The remaining lines, values behind:

Structure (SMILES) | IC50 [nM]
C[C@H]1C[C@H](c2cc(=O)[nH]c3c4c(-c5ccccc5)ccnc4nn23)CCN1 [Example 51, (−)-trans-4-(2-Methylpiperidin-4-yl)-10-phenylpyrido[2′,3′:3,4]pyrazolo[1,5-a]pyrimidin-2(1H)-one hydrochloride] | 15
CCOc1cccc2nn3c([C@@H]4CCN[C@@H](C)C4)cc(=O)[nH]c3c12 [Example 52, (−)-trans-10-Ethoxy-4-(2-methylpiperidin-4-yl)pyrimido[1,2-b]indazol-2(1H)-one hydrochloride] | 13
O=c1cc(C2CCNCC2)n2nc3cccc(C4CC4)c3c2[nH]1 [Example 61, 10-Cyclopropyl-4-(piperidin-4-yl)pyrimido[1,2-b]indazol-2(1H)-one hydrochloride] | 24
CC(C)c1cccc2nn3c(C4CCNCC4)cc(=O)[nH]c3c12 [Example 62, 10-Isopropyl-4-(piperidin-4-yl)pyrimido[1,2-b]indazol-2(1H)-one hydrochloride] | 18
O=c1cc(C2CCNCC2)n2nc3cccc(C4CCCC4)c3c2[nH]1 [Example 63, 10-Cyclopentyl-4-(piperidin-4-yl)pyrimido[1,2-b]indazol-2(1H)-one hydrochloride] | 13
O=c1cc(C2CCNCC2)n2nc3cccc(Cl)c3c2[nH]1 [Example 66, 10-Chloro-4-(piperidin-4-yl)pyrimido[1,2-b]indazol-2(1H)-one] | 15
Cc1ccc2nn3c(C4CCNCC4)cc(=O)[nH]c3c2c1Cl [Example 69, 10-Chloro-9-methyl-4-(piperidin-4-yl)pyrimido[1,2-b]indazol-2(1H)-one hydrochloride] | 20
O=c1cc(C2CCNCC2)n2nc3c(F)ccc(Br)c3c2[nH]1 [Example 71, 10-Bromo-7-fluoro-4-(piperidin-4-yl)pyrimido[1,2-b]indazol-2(1H)-one hydrochloride] | 15
CCC(C)c1cccc2nn3c(C4CCNCC4)cc(=O)[nH]c3c12 (centres unmarked) [Example 72, 10-sec-Butyl-4-(piperidin-4-yl)pyrimido[1,2-b]indazol-2(1H)-one hydrochloride] | 14
CC(C)Cc1cccc2nn3c(C4CCNCC4)cc(=O)[nH]c3c12 [Example 73, 10-Isobutyl-4-(piperidin-4-yl)pyrimido[1,2-b]indazol-2(1H)-one hydrochloride] | 23
Cc1ccc(Br)c2c1nn1c(C3CCNCC3)cc(=O)[nH]c21 [Example 75, 10-Bromo-7-methyl-4-(piperidin-4-yl)pyrimido[1,2-b]indazol-2(1H)-one hydrochloride] | 16
CC(C)Oc1cccc2nn3c(C4CCNCC4)cc(=O)[nH]c3c12 [Example 76, 10-Isopropoxy-4-(piperidin-4-yl)pyrimido[1,2-b]indazol-2(1H)-one hydrochloride] | 15
Cc1cc(Cl)c2c(c1)nn1c(C3CCNCC3)cc(=O)[nH]c21 [Example 79, 10-Chloro-8-methyl-4-(piperidin-4-yl)pyrimido[1,2-b]indazol-2(1H)-one hydrochloride] | 11
O=c1cc(C2CCNCC2)n2nc3cc(F)cc(Br)c3c2[nH]1 [Example 81, 10-Bromo-8-fluoro-4-(piperidin-4-yl)pyrimido[1,2-b]indazol-2(1H)-one hydrochloride] | 16
O=c1cc(C2CCNCC2)n2nc3cccc(-c4nccs4)c3c2[nH]1 [Example 83, 4-(Piperidin-4-yl)-10-(1,3-thiazol-2-yl)pyrimido[1,2-b]indazol-2(1H)-one hydrochloride] | 41
Cn1nccc1-c1cccc2nn3c(C4CCNCC4)cc(=O)[nH]c3c12 [Example 86, 10-(1-Methyl-1H-pyrazol-5-yl)-4-(piperidin-4-yl)pyrimido[1,2-b]indazol-2(1H)-one hydrochloride] | 15
Cn1cc(-c2cccc3nn4c(C5CCNCC5)cc(=O)[nH]c4c23)cn1 [Example 87, 10-(1-Methyl-1H-pyrazol-4-yl)-4-(piperidin-4-yl)pyrimido[1,2-b]indazol-2(1H)-one hydrochloride] | 25

Same assay, conditions: diluted human citrated plasma (platelet-poor, 5%), fibrinogen 3 μM, CaCl2 10 mM, tPA 0.2 nM, 37° C., OD 405 nm; hydrochloride

IC50 [nM] | Structure (SMILES)
10 | N#Cc1cccc2nn3c(C4CCNCC4)cc(=O)[nH]c3c12 [Example 53, 2-Oxo-4-(piperidin-4-yl)-1,2-dihydropyrimido[1,2-b]indazole-10-carbonitrile hydrochloride]
13 | O=c1cc(C2CCNCC2)n2nc3cccc(-c4ccccc4F)c3c2[nH]1 [Example 57, 10-(2-Fluorophenyl)-4-(piperidin-4-yl)pyrimido[1,2-b]indazol-2(1H)-one hydrochloride]
14 | O=c1cc(C2CCNCC2)n2nc3cccc(Br)c3c2[nH]1 [Example 60, 10-Bromo-4-(piperidin-4-yl)pyrimido[1,2-b]indazol-2(1H)-one hydrochloride]
25 | C[C@H]1C[C@H](c2cc(=O)[nH]c3c4c(Cl)cccc4nn23)CCN1 [Example 68, (−)-trans-10-Chloro-4-(2-methylpiperidin-4-yl)pyrimido[1,2-b]indazol-2(1H)-one hydrochloride]
